Results reported in ChEMBL document CHEMBL1201862, “PubChem BioAssay data set” (2004).
The source made the active and inactive calls.

Assays:
[1] = insulin promoter down-regulators in MIN6 cells, imaging, high-content screening, mouse beta cells (AID 1628); format: functional
[2] = cytotoxicity in MIN6 insulinoma cells, dose response, cytotoxicity control, cell-based, mouse insulinoma (AID 2122); format: functional;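 also: confirmatory high-throughput counterscreen run to flag cytotoxic compounds; mouse MIN-6 beta cells carrying an insulin promoter eGFP reporter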
[3] = Luminescence Cell-Based Dose Retest to Confirm Inhibitors of Cancer Stem Cells. [Related pubchem assays (depositor defined):AID2717, AID2721]; format: functional; conditions: Homo sapiens
[4] = target: Delta-type opioid receptor (Homo sapiens, UniProt P41143); assay: Counterscreen for agonists of heterodimerization of the mu 1 (OPRM1) and delta 1 (OPRD1) opioid receptors: Luminescence-based cell-based high throughput dose response assay to identify agonists of OPRD1 homodimerization. [Related pubchem assays (depositor defined):AID504326, AID504355, AID504692, AID504904, AID504905]; format: functional
Delta-type opioid receptor, sequence (P41143 whole entry): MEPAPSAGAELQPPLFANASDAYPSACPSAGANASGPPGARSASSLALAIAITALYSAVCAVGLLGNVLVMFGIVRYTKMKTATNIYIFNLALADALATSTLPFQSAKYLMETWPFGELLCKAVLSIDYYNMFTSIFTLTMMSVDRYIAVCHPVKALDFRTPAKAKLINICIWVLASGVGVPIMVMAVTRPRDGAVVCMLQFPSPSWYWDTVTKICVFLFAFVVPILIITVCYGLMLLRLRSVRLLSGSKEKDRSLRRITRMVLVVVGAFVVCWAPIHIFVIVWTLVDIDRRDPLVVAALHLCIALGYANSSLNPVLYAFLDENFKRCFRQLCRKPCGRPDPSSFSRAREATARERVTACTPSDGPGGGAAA

Mu-type opioid receptor = Mu-type opioid receptor (Homo sapiens, UniProt P35372); assay: Counterscreen for agonists of heterodimerization of the mu 1 (OPRM1) and delta 1 (OPRD1) opioid receptors: Luminescence-based cell-based high throughput dose response assay to identify agonists of OPRM1 homodimerization.; format: functional;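 also: U2OS cells expressing OPRM1 and beta-arrestin as split beta-galactosidase partners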
Mu-type opioid receptor, sequence (P35372 whole entry): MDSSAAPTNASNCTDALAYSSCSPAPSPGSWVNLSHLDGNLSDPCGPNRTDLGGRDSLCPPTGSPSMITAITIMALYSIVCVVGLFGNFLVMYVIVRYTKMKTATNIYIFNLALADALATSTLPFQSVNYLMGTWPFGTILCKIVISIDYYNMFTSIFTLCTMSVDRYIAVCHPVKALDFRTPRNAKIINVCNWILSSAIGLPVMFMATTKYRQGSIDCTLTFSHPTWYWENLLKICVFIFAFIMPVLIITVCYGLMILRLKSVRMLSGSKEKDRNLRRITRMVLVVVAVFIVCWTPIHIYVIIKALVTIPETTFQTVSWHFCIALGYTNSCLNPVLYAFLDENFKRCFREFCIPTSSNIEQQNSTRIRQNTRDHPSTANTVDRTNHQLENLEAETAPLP

[5] = target: 5-hydroxytryptamine receptor 5A (Homo sapiens, UniProt P47898); assay: Counterscreen for agonists of OPRM1-OPRD1 heterodimerization: luminescence-based cell-based high throughput dose response assay to identify agonists of 5-hydroxytryptamine (serotonin) 5A receptor (HTR5A). [Related pubchem assays (depositor defined):AID504326, AID504355, AID504692, AID504904, AID504905]; format: functional
5-hydroxytryptamine receptor 5A, sequence (P47898 whole entry): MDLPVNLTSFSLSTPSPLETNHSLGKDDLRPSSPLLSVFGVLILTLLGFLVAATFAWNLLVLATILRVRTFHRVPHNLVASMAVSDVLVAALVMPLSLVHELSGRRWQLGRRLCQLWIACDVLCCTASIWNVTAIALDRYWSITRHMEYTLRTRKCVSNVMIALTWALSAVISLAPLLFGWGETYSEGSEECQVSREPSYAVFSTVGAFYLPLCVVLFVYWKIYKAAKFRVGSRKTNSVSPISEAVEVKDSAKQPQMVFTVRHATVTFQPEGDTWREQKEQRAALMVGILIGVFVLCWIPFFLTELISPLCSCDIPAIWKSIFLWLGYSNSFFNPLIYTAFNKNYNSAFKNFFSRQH

[6] = target: T1, Mannose-6-phosphate isomerase (Homo sapiens, UniProt P34949); assay: PMI enzyme inhibitors, confirmation, biochemical, fluorescence intensity (AID 1535)
T1 sequence (P34949 whole entry): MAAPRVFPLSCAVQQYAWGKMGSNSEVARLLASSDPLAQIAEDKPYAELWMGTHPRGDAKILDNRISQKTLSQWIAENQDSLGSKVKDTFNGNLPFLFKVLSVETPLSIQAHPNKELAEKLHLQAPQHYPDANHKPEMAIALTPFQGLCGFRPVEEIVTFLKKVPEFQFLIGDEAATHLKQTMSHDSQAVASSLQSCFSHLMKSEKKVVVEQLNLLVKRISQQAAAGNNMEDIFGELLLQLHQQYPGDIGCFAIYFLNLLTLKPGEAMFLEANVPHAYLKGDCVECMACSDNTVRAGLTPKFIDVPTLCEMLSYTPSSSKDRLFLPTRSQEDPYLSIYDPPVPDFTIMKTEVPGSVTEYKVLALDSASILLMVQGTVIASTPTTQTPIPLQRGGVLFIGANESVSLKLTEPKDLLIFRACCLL

Phosphomannomutase 2 = Phosphomannomutase 2 (Homo sapiens, UniProt O15305); assay: Counter screen SAR assay for PMM2 inhibitors via a fluorescence intensity assay. [Related pubchem assays (depositor defined):AID1545, AID1574]
Phosphomannomutase 2, sequence (O15305 whole entry): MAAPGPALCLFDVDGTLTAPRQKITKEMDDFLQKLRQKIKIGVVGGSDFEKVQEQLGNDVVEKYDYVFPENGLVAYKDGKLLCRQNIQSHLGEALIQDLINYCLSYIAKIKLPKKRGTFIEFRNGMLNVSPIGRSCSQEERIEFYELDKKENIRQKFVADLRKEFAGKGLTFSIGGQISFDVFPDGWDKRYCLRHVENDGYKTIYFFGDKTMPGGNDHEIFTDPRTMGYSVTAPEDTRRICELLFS

[7] = target: Phosphoethanolamine/phosphocholine phosphatase (Homo sapiens, UniProt Q8TCT1); assay: SAR assay for compounds that inhibit PHOSPHO1. [Related pubchem assays (depositor defined):AID1545, AID1565, AID1574]
Phosphoethanolamine/phosphocholine phosphatase, sequence (Q8TCT1 whole entry): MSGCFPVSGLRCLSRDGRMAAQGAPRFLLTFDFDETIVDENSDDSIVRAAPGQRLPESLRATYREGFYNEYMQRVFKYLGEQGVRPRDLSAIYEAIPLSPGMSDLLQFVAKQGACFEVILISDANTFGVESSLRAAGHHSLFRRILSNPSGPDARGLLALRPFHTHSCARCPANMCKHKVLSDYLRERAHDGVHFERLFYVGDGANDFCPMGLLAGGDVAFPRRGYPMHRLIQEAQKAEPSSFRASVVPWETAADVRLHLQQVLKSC

[8] = HEp-2 cell cytotoxicity, dose response, cytotoxicity control for RSV inhibitor project, HTS (AID 2410); format: functional; conditions: human respiratory syncytial virus
[9] = target: T2, E3 ubiquitin-protein ligase XIAP (Homo sapiens, UniProt P98170); assay: Counter Screen using XIAP-Bir3 for Chemical Antagonists of Bir1/2 domains of IAP-family anti-apoptotic proteins. [Related pubchem assays (depositor defined):AID1018, AID1449, AID1514, AID1638, AID1749, AID1750, AID488957, AID488963]
T2 sequence (P98170 whole entry): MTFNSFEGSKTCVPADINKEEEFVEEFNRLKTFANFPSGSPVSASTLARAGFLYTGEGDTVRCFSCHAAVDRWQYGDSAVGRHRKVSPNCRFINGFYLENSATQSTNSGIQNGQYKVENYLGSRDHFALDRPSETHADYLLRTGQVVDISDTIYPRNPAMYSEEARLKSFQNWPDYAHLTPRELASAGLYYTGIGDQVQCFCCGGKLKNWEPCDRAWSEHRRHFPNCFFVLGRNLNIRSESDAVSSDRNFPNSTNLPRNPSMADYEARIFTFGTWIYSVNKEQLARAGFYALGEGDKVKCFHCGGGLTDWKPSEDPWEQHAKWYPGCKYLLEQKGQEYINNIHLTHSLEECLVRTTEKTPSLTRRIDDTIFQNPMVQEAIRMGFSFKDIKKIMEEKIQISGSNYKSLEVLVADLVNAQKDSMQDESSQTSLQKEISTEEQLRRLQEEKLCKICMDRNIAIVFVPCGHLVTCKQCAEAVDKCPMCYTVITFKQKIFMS

[10] = target: T2, E3 ubiquitin-protein ligase XIAP; assay: XIAP antagonists, biochemical, IAP family, fluorescence polarization (AID 1018); format: functional
[11] = target: G-protein coupled receptor 55 (Homo sapiens, UniProt Q9Y2T6); assay: GPR55 agonists via beta-arrestin recruitment, primary screen, imaging, U2OS cells, beta-arrestin-GFP redistribution (AID 1961); format: functional
[12] = target: C-C chemokine receptor type 6 (Homo sapiens, UniProt P51684); assay: CCR6 receptor antagonists, dose response, cell-based, luminescent beta-arrestin readout (AID 504728); format: functional
C-C chemokine receptor type 6, sequence (P51684 whole entry): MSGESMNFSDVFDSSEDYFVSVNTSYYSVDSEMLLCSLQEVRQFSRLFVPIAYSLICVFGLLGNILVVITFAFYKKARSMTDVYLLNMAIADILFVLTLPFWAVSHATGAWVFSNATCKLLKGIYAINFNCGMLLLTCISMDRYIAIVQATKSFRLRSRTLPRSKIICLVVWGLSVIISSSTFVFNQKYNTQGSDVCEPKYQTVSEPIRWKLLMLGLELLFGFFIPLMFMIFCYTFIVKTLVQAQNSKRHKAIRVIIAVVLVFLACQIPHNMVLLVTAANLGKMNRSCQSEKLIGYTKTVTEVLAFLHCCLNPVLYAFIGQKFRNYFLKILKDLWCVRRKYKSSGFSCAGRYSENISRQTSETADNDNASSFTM

CAAX prenyl protease 2 = target: T3, CAAX prenyl protease 2 (Saccharomyces cerevisiae S288c, UniProt Q03530); format: biochemical
T3 sequence (Q03530 whole entry): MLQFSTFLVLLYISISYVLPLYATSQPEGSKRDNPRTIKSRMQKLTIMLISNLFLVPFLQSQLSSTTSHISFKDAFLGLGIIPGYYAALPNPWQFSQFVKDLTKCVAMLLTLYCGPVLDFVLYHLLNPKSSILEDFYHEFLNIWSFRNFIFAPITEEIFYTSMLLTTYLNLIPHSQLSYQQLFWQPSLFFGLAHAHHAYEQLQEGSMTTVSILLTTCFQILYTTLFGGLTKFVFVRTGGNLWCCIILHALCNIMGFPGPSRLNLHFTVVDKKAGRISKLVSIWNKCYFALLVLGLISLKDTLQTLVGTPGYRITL

Beta-galactosidase = Beta-galactosidase (Escherichia coli, UniProt Q8VNN2); assay: beta-galactosidase enzyme inhibitors and activators, dose response, artefact control for CCR6 antagonist project, biochemical, E. coli enzyme, set 3 (AID 504712); format: functional
Beta-galactosidase, sequence (Q8VNN2 whole entry): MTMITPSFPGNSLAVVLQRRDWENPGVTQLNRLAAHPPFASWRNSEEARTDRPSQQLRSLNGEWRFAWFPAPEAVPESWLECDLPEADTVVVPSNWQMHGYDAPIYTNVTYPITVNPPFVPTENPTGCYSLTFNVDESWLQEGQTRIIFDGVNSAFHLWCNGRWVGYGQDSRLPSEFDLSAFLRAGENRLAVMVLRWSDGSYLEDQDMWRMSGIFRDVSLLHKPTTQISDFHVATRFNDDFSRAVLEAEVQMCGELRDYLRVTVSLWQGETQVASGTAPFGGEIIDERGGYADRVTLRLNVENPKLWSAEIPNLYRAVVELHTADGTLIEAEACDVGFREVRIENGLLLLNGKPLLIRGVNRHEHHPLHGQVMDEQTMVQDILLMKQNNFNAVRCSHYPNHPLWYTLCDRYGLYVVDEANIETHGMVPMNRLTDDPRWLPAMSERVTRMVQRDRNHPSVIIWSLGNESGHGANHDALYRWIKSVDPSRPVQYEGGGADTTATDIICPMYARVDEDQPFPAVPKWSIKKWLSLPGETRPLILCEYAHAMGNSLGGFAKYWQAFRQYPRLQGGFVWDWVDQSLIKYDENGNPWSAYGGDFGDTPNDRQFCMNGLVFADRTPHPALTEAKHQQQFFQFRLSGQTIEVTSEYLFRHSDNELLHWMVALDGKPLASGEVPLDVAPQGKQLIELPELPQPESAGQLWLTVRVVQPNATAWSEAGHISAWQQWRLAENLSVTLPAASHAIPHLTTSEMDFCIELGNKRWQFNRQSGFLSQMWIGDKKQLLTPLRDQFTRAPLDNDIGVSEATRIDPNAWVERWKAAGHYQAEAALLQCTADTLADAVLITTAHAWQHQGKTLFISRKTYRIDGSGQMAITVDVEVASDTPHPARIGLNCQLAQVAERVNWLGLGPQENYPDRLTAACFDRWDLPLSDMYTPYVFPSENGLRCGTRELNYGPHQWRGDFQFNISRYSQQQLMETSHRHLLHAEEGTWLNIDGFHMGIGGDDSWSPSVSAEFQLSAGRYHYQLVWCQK

CAAX prenyl protease 1 = target: T4, CAAX prenyl protease 1 (Saccharomyces cerevisiae S288c, UniProt P47154); assay: Ste24 protease inhibitors, dose response, biochemical, S. cerevisiae, plate reader, cherry-pick (AID 488815)
T4 sequence (P47154 whole entry): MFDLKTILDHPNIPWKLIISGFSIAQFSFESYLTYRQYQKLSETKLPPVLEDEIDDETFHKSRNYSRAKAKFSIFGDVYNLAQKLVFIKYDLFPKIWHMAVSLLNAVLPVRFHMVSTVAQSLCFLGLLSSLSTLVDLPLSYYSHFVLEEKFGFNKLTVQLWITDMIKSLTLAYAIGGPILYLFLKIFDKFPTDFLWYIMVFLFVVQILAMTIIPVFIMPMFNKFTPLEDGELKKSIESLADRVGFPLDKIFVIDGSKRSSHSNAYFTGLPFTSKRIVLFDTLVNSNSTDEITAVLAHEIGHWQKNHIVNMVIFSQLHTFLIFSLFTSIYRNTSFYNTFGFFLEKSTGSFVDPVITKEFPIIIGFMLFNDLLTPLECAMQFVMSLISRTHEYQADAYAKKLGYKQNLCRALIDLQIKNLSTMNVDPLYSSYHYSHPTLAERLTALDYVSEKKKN

[13] = target: DNA dC->dU-editing enzyme APOBEC-3A (Homo sapiens, UniProt P31941); assay: APOBEC3A DNA deaminase inhibitors, dose response, biochemical (AID 504722); format: functional
DNA dC->dU-editing enzyme APOBEC-3A, sequence (P31941 whole entry): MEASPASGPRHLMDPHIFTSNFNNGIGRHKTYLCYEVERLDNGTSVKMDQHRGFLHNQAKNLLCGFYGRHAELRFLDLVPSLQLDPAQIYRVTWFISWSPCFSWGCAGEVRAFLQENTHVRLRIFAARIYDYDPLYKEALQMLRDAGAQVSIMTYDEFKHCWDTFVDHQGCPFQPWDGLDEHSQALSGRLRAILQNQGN

[14] = target: Glucose-6-phosphate 1-dehydrogenase (Homo sapiens, UniProt P11413); assay: human G6PD enzyme inhibitors, dose response, selectivity assay for P. falciparum G6PD inhibitor project, biochemical, fluorescence (AID 504792); format: functional
Glucose-6-phosphate 1-dehydrogenase, sequence (P11413 whole entry): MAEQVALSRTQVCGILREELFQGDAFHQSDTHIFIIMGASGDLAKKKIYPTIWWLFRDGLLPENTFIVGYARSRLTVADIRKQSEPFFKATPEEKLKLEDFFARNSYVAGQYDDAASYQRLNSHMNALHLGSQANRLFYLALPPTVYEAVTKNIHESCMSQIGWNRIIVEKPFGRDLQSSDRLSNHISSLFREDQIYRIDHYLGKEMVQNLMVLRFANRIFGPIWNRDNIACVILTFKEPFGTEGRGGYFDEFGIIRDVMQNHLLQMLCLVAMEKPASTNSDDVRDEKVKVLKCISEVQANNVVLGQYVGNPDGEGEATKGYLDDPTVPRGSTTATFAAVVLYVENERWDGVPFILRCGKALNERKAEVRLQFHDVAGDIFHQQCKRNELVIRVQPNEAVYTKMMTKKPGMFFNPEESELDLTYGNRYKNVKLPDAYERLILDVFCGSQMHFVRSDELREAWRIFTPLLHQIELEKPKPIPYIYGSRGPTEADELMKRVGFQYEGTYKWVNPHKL

Hexokinase HKDC1 = target: T5, Hexokinase HKDC1 (Homo sapiens, UniProt Q2TB90); assay: HKDC1 hexokinase activators, dose response, biochemical, W721R variant (AID 504730); format: functional
T5 sequence (Q2TB90 whole entry): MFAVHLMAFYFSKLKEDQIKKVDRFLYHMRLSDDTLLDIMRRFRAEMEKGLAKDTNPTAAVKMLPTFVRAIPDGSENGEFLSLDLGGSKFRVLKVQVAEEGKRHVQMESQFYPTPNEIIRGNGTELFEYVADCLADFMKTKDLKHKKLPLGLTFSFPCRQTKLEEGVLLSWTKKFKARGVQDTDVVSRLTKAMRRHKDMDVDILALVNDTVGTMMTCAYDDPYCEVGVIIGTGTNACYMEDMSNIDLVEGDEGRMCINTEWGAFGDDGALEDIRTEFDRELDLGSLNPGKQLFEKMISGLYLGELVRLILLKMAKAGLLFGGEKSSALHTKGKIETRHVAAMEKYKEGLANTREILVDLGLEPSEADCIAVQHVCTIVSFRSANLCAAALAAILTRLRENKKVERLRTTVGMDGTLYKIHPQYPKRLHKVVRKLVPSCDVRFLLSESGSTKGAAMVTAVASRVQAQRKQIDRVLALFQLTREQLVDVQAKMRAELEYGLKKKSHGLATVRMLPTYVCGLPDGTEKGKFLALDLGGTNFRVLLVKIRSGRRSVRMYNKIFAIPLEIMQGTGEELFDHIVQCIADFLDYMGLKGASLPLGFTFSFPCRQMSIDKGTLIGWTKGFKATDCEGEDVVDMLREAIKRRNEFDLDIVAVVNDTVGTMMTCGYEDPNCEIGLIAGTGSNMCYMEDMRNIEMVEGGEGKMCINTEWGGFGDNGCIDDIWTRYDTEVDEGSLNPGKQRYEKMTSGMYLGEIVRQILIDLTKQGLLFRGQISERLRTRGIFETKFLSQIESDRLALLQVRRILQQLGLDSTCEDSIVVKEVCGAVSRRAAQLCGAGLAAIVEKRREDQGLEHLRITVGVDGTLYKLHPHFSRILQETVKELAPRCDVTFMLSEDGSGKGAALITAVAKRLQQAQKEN

[15] = target: DNA dC->dU-editing enzyme APOBEC-3G (Homo sapiens, UniProt Q9HC16); assay: Dose Response confirmation of small molecule APOBEC3G DNA Deaminase Inhibitors via a fluorescence-based single-stranded DNA deaminase assay. [Related pubchem assays (depositor defined):AID493012, AID493028]; format: functional
DNA dC->dU-editing enzyme APOBEC-3G, sequence (Q9HC16 whole entry): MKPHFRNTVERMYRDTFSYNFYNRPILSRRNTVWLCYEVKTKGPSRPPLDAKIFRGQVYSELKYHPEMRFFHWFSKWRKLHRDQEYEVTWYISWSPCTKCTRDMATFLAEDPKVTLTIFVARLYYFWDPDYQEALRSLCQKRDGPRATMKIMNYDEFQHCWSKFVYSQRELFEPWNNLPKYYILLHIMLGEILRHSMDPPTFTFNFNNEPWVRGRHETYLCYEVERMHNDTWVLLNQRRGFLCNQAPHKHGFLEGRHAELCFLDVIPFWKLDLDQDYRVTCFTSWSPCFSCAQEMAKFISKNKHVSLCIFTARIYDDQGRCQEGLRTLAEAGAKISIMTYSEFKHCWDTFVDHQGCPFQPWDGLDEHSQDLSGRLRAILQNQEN

Hexokinase-1 = target: T6, Hexokinase-1 (Homo sapiens, UniProt P19367); assay: hexokinase 1 activators, dose response, selectivity assay for HKDC1 activator project, biochemical (AID 504762); format: functional
T6 sequence (P19367 whole entry): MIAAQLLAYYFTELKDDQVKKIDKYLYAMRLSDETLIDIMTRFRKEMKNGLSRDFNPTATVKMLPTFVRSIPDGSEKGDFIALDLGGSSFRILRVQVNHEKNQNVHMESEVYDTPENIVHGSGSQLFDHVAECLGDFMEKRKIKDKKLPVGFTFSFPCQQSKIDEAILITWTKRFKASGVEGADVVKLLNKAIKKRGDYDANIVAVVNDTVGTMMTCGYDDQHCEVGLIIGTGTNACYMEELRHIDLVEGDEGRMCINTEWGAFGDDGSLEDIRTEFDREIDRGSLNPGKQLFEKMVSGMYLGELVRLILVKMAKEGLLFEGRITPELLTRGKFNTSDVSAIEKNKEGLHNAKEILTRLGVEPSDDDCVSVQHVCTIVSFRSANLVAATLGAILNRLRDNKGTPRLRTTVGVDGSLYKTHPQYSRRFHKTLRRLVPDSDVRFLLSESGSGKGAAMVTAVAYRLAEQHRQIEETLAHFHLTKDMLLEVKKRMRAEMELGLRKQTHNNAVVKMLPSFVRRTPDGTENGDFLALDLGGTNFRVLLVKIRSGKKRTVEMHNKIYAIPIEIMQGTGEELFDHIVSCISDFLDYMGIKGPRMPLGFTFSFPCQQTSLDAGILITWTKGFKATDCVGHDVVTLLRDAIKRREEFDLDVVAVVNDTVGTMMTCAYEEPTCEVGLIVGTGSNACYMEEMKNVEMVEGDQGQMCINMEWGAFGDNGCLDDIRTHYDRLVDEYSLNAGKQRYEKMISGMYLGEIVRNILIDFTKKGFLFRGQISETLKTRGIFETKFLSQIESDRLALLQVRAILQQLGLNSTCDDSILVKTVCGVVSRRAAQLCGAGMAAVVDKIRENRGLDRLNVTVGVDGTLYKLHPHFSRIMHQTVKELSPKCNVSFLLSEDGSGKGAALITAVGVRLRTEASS

With COC(=O)c1c(NC(=O)Cc2cccs2)sc2c1CCC(C)C2 (centres undefined) the IC50 [1] was 6.23 µM (active), the IC50 [2] was > 16 µM (inactive) and the AC50 [3] was 2.78 µM (active).
In the case of COC(=O)CCCNC(=O)c1ccc(OC2CCN(CCc3ccccc3)CC2)cc1, the EC50 [4] is reported as > 92.5 µM (inactive), the EC50 (Mu-type opioid receptor) is reported as > 92.5 µM (inactive) and the EC50 [5] is reported as > 92.5 µM (inactive).
With O=c1c2c([N+](=O)[O-])cc([N+](=O)[O-])cc2sn1-c1ccc(F)c(Cl)c1 the IC50 [6] was 12 µM (active), the IC50 (Phosphomannomutase 2) was 1.26 µM (active) and the IC50 [7] was 0.192 µM (active).
With Cc1ccc(C(C)NC(=O)/C(C#N)=C\c2c(C)[nH]c3ccccc23)cc1 (centres undefined) the CC50 [8] was 19.4 µM (active), the IC50 [9] was > 100 µM (inactive) and the IC50 [10] was > 100 µM (not active).
With COCCCN=C(S)NNC(=O)c1cccnc1 the EC50 [11] was > 32 µM (inactive).
For N#Cc1c(N2CCN(C(=O)c3ccccc3)CC2)nc(-c2ccccc2)c2c1CCCC2, the IC50 [12] was > 66.6 µM (inactive), the AC50 (CAAX prenyl protease 2) was 8.3 µM (active) and the IC50 (Beta-galactosidase) was > 66.6 µM (inactive). For the same compound, the AC50 (CAAX prenyl protease 1) was 1.6 µM (active).
For CC(NC(=O)c1sc2cc([N+](=O)[O-])ccc2c1Cl)C(C)(C)C (centres undefined), the IC50 [13] was > 100 µM (inactive), the IC50 [14] was > 80 µM (inactive) and the EC50 (Hexokinase HKDC1) was 23.6 µM (inactive). The IC50 [15] was 18.4 µM (active) and the EC50 (Hexokinase-1) was 46.8 µM (inactive).
For CCCc1nc2oc3cc(OC)ccc3c(=O)c2c(=O)n1Cc1ccco1, the IC50 [9] was > 100 µM (inactive) and the IC50 [10] was > 100 µM (not active).
